Legend:
Format in all cases: biochemical
JAK1 = JAK1 (Homo sapiens, UniProt P23458); assay: JAK kinase activity, homogeneous time-resolved fluorescence (JAK1 reaction system); details: ATP 2 μM, JAK1 protein 0.2 ng/μL; read-out: JAK 1 activity
Method in brief: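 HTRF assay: JAK1 (0.2 ng/μL) with 2 μM ATP and substrate in 50 mM Hepes pH 7.0, 5 mM MgCl2, 1 mM DTT, 1 h. Phospho-substrate antibody/XL-615 detection with EDTA; 665/615 nm ratio, excitation 320 nm. IC50 from Hill-type fit against no-enzyme and no-compound controls.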

JAK2 = JAK2 (Homo sapiens, UniProt O60674); assay: JAK kinase activity, homogeneous time-resolved fluorescence (JAK2 reaction system); details: ATP 2 μM, JAK2 protein 0.01 ng/μL
Method in brief: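 IC50 derived by Hill-equation fit of the 665/615 nm time-resolved fluorescence ratio after EDTA-containing detection mix with anti-phosphosubstrate antibody. Preceding 1 h reaction contained 2 μM ATP, 0.01 ng/μL JAK2, substrate, 50 mM Hepes pH 7.0, 5 mM MgCl2, 1 mM DTT.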

JAK3 = target: T1, JAK3 (Homo sapiens, UniProt P52333); assay: JAK kinase activity, homogeneous time-resolved fluorescence (JAK3 reaction system); details: ATP 2 μM, JAK3 protein 0.04 ng/μL; read-out: JAK 3 activity
T1 sequence (P52333 1-1124): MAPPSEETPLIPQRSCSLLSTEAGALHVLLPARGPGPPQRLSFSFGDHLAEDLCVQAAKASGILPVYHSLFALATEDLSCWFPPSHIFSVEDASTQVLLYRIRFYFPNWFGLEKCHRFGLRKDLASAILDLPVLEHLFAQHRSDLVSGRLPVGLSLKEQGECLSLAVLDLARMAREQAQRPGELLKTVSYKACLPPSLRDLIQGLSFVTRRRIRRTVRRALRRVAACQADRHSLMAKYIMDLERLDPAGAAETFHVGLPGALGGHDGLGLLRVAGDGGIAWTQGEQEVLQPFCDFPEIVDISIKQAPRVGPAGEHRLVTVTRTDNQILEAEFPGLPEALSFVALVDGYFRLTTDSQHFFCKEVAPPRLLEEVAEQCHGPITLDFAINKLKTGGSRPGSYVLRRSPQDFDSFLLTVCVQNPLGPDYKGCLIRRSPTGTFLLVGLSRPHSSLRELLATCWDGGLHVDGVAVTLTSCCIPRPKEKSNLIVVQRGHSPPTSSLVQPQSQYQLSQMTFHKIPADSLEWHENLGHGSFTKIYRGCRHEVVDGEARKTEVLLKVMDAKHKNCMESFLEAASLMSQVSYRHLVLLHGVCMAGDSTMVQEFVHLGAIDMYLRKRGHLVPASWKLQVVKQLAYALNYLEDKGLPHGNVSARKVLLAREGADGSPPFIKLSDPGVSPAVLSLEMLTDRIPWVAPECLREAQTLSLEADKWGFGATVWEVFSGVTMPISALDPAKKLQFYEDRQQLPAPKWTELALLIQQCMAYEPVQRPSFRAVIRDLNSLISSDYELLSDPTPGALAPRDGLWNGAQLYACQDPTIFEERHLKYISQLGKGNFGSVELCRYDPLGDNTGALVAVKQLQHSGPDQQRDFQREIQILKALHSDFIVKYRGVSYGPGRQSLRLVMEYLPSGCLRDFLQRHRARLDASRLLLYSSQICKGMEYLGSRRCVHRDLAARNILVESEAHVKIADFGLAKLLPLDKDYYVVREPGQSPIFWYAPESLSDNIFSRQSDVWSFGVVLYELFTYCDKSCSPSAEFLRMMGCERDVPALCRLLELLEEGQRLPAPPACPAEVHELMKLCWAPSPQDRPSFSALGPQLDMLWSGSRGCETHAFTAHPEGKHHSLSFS

TYK2 = TYK2 (Homo sapiens, UniProt P29597); assay: JAK kinase activity, homogeneous time-resolved fluorescence (TYK2 reaction system); details: ATP 2 μM, TYK2 protein 0.2 ng/μL; read-out: TYK 2 activity
Method in brief: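 Activity read as the 665 nm/615 nm ratio after adding EDTA-containing detection mix with anti-phospho-substrate antibody and XL-615. Beforehand, 0.2 ng/μL TYK2, 2 μM ATP, substrate and compound reacted 1 h in pH 7.0 Hepes buffer with MgCl2 and DTT. IC50 fitted with Hill-slope equation.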

Chain of JAK2 (O60674 whole entry): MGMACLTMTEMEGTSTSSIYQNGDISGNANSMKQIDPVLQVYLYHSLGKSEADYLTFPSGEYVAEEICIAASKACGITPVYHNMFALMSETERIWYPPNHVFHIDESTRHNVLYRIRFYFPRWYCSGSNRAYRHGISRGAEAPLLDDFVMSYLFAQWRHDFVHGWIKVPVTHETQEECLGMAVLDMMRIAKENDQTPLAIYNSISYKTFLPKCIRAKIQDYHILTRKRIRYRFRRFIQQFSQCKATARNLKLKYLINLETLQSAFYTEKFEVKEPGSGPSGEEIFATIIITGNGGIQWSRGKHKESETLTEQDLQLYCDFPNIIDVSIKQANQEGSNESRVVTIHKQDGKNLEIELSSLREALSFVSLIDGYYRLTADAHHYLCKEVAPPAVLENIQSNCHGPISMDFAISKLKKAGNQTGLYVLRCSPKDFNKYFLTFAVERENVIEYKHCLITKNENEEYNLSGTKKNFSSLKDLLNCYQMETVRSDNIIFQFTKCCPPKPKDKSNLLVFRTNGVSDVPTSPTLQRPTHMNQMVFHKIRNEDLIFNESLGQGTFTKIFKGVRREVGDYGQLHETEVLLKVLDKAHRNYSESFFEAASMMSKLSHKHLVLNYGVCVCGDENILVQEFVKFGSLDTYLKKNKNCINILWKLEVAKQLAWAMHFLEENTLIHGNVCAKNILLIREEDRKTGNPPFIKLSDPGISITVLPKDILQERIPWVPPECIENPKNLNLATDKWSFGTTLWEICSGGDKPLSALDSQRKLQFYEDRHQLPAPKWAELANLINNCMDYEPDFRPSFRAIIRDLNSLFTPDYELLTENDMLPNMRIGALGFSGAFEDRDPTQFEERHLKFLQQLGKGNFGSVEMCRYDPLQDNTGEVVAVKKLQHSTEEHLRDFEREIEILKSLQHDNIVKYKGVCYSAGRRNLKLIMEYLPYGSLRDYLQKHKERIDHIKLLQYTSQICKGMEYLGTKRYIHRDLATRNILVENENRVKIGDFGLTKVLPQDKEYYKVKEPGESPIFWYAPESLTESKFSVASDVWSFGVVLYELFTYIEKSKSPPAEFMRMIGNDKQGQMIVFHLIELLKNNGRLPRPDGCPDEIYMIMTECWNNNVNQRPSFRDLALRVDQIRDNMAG
Chain of TYK2 (P29597 whole entry): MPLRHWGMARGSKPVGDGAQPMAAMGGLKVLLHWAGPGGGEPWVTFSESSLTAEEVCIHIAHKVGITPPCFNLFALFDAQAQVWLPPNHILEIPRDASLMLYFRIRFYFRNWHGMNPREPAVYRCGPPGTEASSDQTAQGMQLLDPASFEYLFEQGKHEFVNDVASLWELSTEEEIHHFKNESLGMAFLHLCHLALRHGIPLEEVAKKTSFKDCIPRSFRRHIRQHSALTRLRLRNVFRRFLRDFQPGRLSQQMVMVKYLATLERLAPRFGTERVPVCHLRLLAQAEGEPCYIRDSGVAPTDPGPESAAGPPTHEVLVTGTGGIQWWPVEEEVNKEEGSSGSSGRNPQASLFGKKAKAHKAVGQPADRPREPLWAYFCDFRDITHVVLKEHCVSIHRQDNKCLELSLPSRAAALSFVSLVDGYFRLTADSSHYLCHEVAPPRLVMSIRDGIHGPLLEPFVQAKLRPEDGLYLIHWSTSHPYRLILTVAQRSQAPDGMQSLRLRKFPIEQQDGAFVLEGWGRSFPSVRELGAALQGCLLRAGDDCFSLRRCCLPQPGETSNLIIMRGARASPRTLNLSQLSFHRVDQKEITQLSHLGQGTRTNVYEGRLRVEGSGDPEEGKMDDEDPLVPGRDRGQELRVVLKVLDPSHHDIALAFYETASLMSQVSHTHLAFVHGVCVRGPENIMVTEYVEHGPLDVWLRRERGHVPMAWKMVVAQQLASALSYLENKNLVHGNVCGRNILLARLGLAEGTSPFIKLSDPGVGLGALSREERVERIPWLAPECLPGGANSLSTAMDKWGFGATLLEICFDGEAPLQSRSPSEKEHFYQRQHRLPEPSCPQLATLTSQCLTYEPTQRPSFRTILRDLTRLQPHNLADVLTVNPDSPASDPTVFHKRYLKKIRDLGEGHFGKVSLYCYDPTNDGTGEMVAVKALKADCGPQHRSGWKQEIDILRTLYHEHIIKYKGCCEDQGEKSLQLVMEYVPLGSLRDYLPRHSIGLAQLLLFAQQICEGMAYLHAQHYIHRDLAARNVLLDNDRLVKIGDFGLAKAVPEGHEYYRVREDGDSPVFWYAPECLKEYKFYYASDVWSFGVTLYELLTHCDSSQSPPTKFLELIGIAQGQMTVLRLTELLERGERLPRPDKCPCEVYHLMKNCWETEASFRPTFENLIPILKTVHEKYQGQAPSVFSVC
Chain of JAK1 (P23458 whole entry): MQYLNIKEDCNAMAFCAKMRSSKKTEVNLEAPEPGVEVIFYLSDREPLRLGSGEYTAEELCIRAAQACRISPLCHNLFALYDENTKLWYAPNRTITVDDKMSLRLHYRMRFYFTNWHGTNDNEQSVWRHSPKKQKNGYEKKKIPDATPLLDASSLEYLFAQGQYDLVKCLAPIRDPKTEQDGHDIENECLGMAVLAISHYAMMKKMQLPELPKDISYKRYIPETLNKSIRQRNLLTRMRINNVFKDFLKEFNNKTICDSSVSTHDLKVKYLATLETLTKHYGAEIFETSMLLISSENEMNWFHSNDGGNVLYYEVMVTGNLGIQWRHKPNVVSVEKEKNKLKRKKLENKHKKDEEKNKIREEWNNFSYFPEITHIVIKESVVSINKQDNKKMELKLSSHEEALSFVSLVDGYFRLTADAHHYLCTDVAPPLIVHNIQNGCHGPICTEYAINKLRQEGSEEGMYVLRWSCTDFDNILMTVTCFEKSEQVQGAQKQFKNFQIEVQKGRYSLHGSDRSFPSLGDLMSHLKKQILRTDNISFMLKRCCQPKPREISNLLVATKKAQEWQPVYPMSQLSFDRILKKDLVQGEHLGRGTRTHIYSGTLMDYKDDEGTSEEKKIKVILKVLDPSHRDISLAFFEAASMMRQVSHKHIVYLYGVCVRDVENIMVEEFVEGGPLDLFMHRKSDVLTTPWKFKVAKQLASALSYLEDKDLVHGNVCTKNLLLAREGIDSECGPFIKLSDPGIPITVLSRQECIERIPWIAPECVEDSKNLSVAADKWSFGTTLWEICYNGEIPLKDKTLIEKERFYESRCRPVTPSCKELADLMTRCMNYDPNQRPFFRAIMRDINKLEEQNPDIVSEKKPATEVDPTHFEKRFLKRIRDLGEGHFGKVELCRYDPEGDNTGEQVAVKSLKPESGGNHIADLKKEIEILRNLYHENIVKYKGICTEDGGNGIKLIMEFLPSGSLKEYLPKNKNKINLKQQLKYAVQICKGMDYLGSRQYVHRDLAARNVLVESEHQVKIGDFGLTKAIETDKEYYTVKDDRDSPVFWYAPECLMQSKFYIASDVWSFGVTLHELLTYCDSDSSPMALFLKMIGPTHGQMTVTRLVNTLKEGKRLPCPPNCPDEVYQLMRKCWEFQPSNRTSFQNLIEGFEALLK

SMILES | IC50 (JAK1) [µM] | IC50 (JAK2) [µM] | IC50 (JAK3) [µM] | IC50 (TYK2) [µM]
O=C1NCCCCOCc2cc(cc(N3CCOCC3)c2)Nc2ncc(Cl)c(n2)-c2ccc1cc2 [Example 16, 2^5-chloro-4^5-morpholin-6-oxa-3,11-diaza-2(4,2)-pyrimidina-1(1,4),4(1,3)-dibenzenacyclododecaphan-12-one] | 0.011 to 0.1 | 0.011 to 0.1 | 0.011 to 0.1 | 1 to 10
CC(C)Oc1ccc2cc1COCCCCNC(=O)c1ccc(c(N)c1)-c1ccnc(n1)N2 [Example 67, 1^2-amino-4^4-isopropoxy-6-oxa-3,11-diaza-2(4,2)-pyrimidina-1(1,4),4(1,3)-dibenzenacyclododecaphan-12-one] | 0.101 to 1 | 0.101 to 1 | < 0.01 | 1 to 10
O=C1NCCCCOCc2cc(ccc2OCC2CCCOC2)Nc2nccc(n2)-c2ccc1cc2[N+](=O)[O-] (centres unmarked) [Example 146, 1^2-nitro-4^4-((tetrahydro-2H-pyran-3-yl)methoxy)-6-oxa-3,11-diaza-2(4,2)-pyrimidina-1(1,4),4(1,3)-dibenzenacyclododecaphan-12-one] | > 10 | 1 to 10 | 0.101 to 1 | > 10
Cc1cc2ccc1-c1ccnc(n1)Nc1cc(cc(N3CCOCC3)c1)COCCCCNC2=O [Example 46, 1^2-methyl-4^4-morpholin-6-oxa-3,11-diaza-2(4,2)-pyrimidina-1(1,4),4(1,3)-dibenzenacyclododecaphan-12-one] | 1 to 10 | 0.101 to 1 | 0.011 to 0.1 | 1 to 10
O=C1NCCCCOCc2cc(ccc2C2CC2)Nc2nccc(n2)-c2ccc1cc2F [Example 2, 1^2-fluoro-4^4-cyclopropyl-6-oxa-3,11-diaza-2 (4,2)-pyrimidina-1(1,4),4(1,3)-dibenzenacyclododecaphan-12-one] | 0.101 to 1 | 0.101 to 1 | 0.101 to 1 | 0.101 to 1
O=C1NCCCCOCc2cc(ccc2N2CCOCC2)Nc2ncc(Cl)c(n2)-c2ccc1cc2F [Example 14, 2^5-chloro-1^2-fluoro-4^4-morpholin-6-oxa-3,11-diaza-2(4,2)-pyrimidina-1-(1,4),4(1,3)-dibenzenacyclododeca-phan-12-one] | 0.101 to 1 | 0.011 to 0.1 | 0.011 to 0.1 | 0.101 to 1
Nc1cc2ccc1-c1ccnc(n1)Nc1ccc(OCC3CC3)c(c1)COCCCCNC2=O [Example 112, 1^2-amino-4^4-(cyclopropylmethoxy)-6-oxa-3,11-diaza-2(4,2)-pyrimidi-na-1(1,4),4(1,3)-dibenzenacyclo-dodecaphan-12-one] | 1 to 10 | 0.101 to 1 | < 0.01 | > 10
O=C1Nc2ccc(cc2)OCc2cc(ccc2OCC2CC2)Nc2nccc(n2)-c2ccc1cc2[N+](=O)[O-] [Example 206, 4^4-(cyclopropylmethoxy)-1-nitro-6-oxa-3,8-diaza-2(4,2)-pyrimidina-1,7(1,4),4(1,3)-tribenzenacyclo-nonaphane-9-one] | 1 to 10 | 0.101 to 1 | < 0.01 | > 10
O=C1NCCCCOCc2cc(ccc2OCC(F)(F)F)Nc2nccc(n2)-c2ccc1cc2[N+](=O)[O-] [Example 108, 1^2-nitro-4^4-(2,2,2-trifluoroethoxy)-6-oxa-3,11-diaza-2(4,2)-pyrimidina-1(1,4),4(1,3)-dibenzenacyclo-dodecaphan-12-one] | 1 to 10 | 1 to 10 | 0.101 to 1 | > 10
Cc1ccc2cc1COCCCCNC(=O)c1ccc(c(N)c1)-c1ccnc(n1)N2 [Example 43, 1^2-amino-4^4-methyl-6-oxa-3,11-dia-za-2(4,2)-pyrimidina-1(1,4),4(1,3)-dibenzenacyclododecaphan-12-one] | 1 to 10 | 1 to 10 | 0.101 to 1 | > 10
CC1CCNC(=O)c2ccc(c(N)c2)-c2ccnc(n2)Nc2ccc(OCC3CCCCC3)c(c2)COC1 (centres unmarked) [Example 149, 1^2-amino-4^4-(cyclohexylmethoxy)-8-methyl-6-oxa-3,11-diaza-2(4,2)-pyrimidina-1(1,4),4(1,3)-dibenzena-cyclododecaphan-12-one] | 1 to 10 | 1 to 10 | 0.011 to 0.1 | > 10
CC1CCNC(=O)c2ccc(c(N)c2)-c2ccnc(n2)Nc2ccc(OCC3CCC3)c(c2)COC1 (centres unmarked) [Example 142] | 1 to 10 | 1 to 10 | 0.011 to 0.1 | > 10
O=C1NCCCCOCc2cc(ccc2OCc2ccccc2)Nc2nccc(n2)-c2ccc1cc2[N+](=O)[O-] [Example 117, 4^4-(benzyloxy)-1^2-nitro-6-oxa-3,1,1-diaza-2(4,2)-pyrimidina-1(1,4),4(1,3)-dibenzenacyclododecaphan-12-one] | 1 to 10 | > 10 | 0.101 to 1 | > 10
CC(C)COc1ccc2cc1COCCCCNC(=O)c1ccc(c([N+](=O)[O-])c1)-c1ccnc(n1)N2 [Example 115, 4^4-isobutoxy-1^2-nitro-6-oxa-3,11-diaza-2(4,2)-pyrimidina-1(1,4),4(1,3)-dibenzenacyclododecaphan-12-one] | 1 to 10 | 1 to 10 | 0.101 to 1 | > 10
CC1CCNC(=O)c2ccc(c([N+](=O)[O-])c2)-c2ccnc(n2)Nc2ccc(Oc3cccnc3)c(c2)COC1 (centres unmarked) [Example 129, 8-methyl-1^2-nitro-4^4-(pyridin-3-ox-yl)-6-oxa-3,11-diaza-2(4,2)-pyrimi-dina-1(1,4),4(1,3)-dibenzenacyclo-dodecaphan-12-one] | 1 to 10 | 1 to 10 | 0.101 to 1 | > 10
Nc1cc2ccc1-c1ccnc(n1)Nc1ccc(F)c(c1)COc1ccc(cc1)NC2=O [Example 91, 1^2-amino-4^4-fluoro-6-oxa-3,8-diaza-2(4,2)-pyrimidina-1,7(1,4),4(1,3)-tri-benzenacyclononaphane-9-one] | > 10 | > 10 | 0.101 to 1 | > 10
Nc1cc2ccc1-c1ccnc(n1)Nc1ccc(OCC3CC(F)(F)C3)c(c1)COc1ccc(cc1)NC2=O [Example 210, 1^2-amino-4^4-((3,3-difluorocyclobutyl)methoxy)-6-oxa-3,8-diaza-2(4,2)-pyrimidina-1,7(1,4),4(1,3)-tribenz-enacyclononaphane-9-one] | > 10 | > 10 | 0.011 to 0.1 | > 10
N#Cc1cnc2nc1-c1ccc(cc1)C(=O)NCCCCOCc1cc(ccc1N1CCOCC1)N2 [Example 11, 2^5-cyano-4^4-morpholin-6-oxa-3,11-diaza-2(4,2)-pyrimidina-1(1,4),4(1,3)-dibenzenacyclododecaphan-12-one] | 1 to 10 | 0.101 to 1 | 0.101 to 1 | 1 to 10
Cc1ccc2cc1COCCCCNC(=O)c1ccc(c(F)c1)-c1ccnc(n1)N2 [Example 38, 1^2-fluoro-4^4-methyl-6-oxa-3,11-diaza-2(4,2)-pyrimidina-1(1,4),4(1,3)-di-benzenacyclododecaphan-12-one] | 0.101 to 1 | 0.101 to 1 | 0.101 to 1 | 1 to 10
O=C1NCCCCOCc2cc(ccc2N2CCOCC2)Nc2nccc(n2)-c2ccc1cc2OC(F)(F)F [Example 22, 4^4-morpholin-1^2-trifluoromethoxy-6-oxa-3,11-diaza-2(4,2)-pyrimidina-1(1,4),4(1,3)-dibenzenacyclododeca-phan-12-one] | 1 to 10 | 0.101 to 1 | 0.101 to 1 | 1 to 10

From US20230203059A1, “MACROCYCLIC JAK INHIBITOR AND USES THEREOF” (Biopolar Hongye (Guangdong) Pharmaceutical Co. Ltd., priority 2020, published 2023)
